Measured values: patent US20260138976A1 (Hoffmann-La Roche Inc., priority 2022, published 2026)

Key:
MV-3 cells = assay: T-cell - TCB - MV3 killing assay; type: cell-based, human; details: for Emax: Homo sapiens, MV-3, 120 h, % TCL normalized: MCSP-TCB only = neutral control, 20 μM reference compound A1 = 100%, read-out: MSCP TCB killing MV-3 cells 5 d Emax (%); for EC50: primary human T-cells + MV-3 RFP cells, MCSP-TCB 1.5 pM-5 pM, 120 hours imaging, read-out: MSCP TCB killing MV-3 cells 5 d EC50
Experimental: All culturing steps are executed at 5% CO2, 37° C. and 95% humidity. MV-3 RFP cells are cultured in MV-3 medium (DMEM+10% FBS, 1× PenStrep and 0.5 μg/mL Puromycin) for at least 3 weeks. Cultured MV-3 cells at 80% confluency are washed once with PBS−− and trypsinized until detached. […] Cells are seeded with 100 μL/well into a 96-well plate (TTP, #92696), and placed for 40 minutes without moving at room temperature in order to achieve evenly distributed attachment of cells. Plates are then incubated until further use.
On the next day, expanded primary human T-cells are thawed and resuspended in T-cell medium to 4*10^6 cells/mL. For 3 hours, they are cultured in a 6-well plate with 6 mL per well at maximum. After culturing the T-cells, they are filtered through a cell strainer (Miltenyi Biotech, #130-041-407), counted again, and cell concentration is adjusted to 2*10^6 cells/mL.
MCSP-TCB or PBS are pre-diluted in T-cell medium (concentration depending on T-cell donor), 4 times more concentrated than the end-concentration. 60 μL/well of pre-dilutions are then distributed into a round bottom plate (Costar, #3799) according to plate layout. Compounds are added in a 9 pt dose response with the Tecan D300e Digital Dispenser, as well 4 times more concentrated than the end-concentration. DMSO concentration of all wells is adjusted to 0.8%, resulting in 0.2% as final concentration.
60 μL per well of T-cell suspension are added to the prepared round bottom plate and resuspended with a manual multichannel. 100 μL/well of the resuspended T-cell suspension including treatments are then transferred cautiously to the over-night cultured MV-3 cells according to plate layout. 100 μL T-cell medium only is added to the outer MV-3 wells only. Final compound DR is starting at 20 μM with a dilution factor of 3.333. Final TCB concentration is between 1.5 pM to 5 pM and was determined for each T-cell donor individually by running TCB titrations. For each donor, a TCB concentration was chosen which corresponds to 10-20% MV3 baseline cell killing in the absence of compound treatment. Positive control is the reference compound A1 which is added in a DR, as well as additional wells with only 20 μM. 20 μM of reference compound A1 represent the positive stimulator control, TCB only (DMSO wells) the neutral control.
After transfer of T-cells with treatment pre-dilutions, MV-3 cells are imaged by time-lapse microscopy using IncucyteZOOM™ (Essen BioScience, MI, USA). Imaging is performed every 3 hours for a total of 120 hours (10× objective, phase and red image channels, acquisition time 400 ms, Green/Red 4614 optical module). RFP object count per well is analysed in the IncucyteZOOM™ Software (Version 2019B Rev2) with a mask that was previously created and optimized for MV-3 cells. Raw data is exported as object count/well and values are normalized as % TCL compared to wells with MV-3 only, representing 100% growth and therefore 0% TCL.
Calculated % TCL values are analysed in Genedata Screener using Roche Normalization PCT_POS_CTRL with MCSP-TCB only set as Neutral Control and 20 μM of the reference compound A1 set as Stimulator Control/100%.
Induced TCL by compounds without TCB treatment or toxicity (observed in the PBS condition) were be flagged.

DGK ζ kinase = molecular target: T1, DGK ζ kinase (Homo sapiens, UniProt Q13574); assay: DGKzeta kinase ADP Glo assay run by Reaction Biology Corp.; type: biochemical; details: 2 nM kinase, 50 µM ATP, 500 μM DLG, 10-dose duplicate
T1 construct: purchased Reaction Biology Corp. (contract assay service)
Experimental: DGK α and ζ kinases use ATP to phosphorylate the substrate 1,2-dilauroyl-sn-glycerol (DLG). ATP is converted to ADP as a result of this enzymatic reaction.
After the kinase reaction, an ATP-depletion reagent is added to terminate the kinase reaction and deplete any remaining ATP, leaving only ADP. Second, a detection reagent is added to simultaneously convert ADP to ATP and allow the newly synthesized ATP to be converted to light using a coupled luciferase/luciferin reaction.
DGK α and ζ kinase ADP Glo assays were ran by Reaction Biology Corp., 1 Great Valley Parkway, Suite 2, Malvern, 19355, PA, USA. Information provided by the service provider are the following: DGK α and ζ kinases were used at 2 nM final concentration. Reactions were carried out at 50 µM ATP. 500 μM of the substrate DLG (Dilauroyl-sn-glycerol) was used.

T1 sequence (Q13574 whole entry): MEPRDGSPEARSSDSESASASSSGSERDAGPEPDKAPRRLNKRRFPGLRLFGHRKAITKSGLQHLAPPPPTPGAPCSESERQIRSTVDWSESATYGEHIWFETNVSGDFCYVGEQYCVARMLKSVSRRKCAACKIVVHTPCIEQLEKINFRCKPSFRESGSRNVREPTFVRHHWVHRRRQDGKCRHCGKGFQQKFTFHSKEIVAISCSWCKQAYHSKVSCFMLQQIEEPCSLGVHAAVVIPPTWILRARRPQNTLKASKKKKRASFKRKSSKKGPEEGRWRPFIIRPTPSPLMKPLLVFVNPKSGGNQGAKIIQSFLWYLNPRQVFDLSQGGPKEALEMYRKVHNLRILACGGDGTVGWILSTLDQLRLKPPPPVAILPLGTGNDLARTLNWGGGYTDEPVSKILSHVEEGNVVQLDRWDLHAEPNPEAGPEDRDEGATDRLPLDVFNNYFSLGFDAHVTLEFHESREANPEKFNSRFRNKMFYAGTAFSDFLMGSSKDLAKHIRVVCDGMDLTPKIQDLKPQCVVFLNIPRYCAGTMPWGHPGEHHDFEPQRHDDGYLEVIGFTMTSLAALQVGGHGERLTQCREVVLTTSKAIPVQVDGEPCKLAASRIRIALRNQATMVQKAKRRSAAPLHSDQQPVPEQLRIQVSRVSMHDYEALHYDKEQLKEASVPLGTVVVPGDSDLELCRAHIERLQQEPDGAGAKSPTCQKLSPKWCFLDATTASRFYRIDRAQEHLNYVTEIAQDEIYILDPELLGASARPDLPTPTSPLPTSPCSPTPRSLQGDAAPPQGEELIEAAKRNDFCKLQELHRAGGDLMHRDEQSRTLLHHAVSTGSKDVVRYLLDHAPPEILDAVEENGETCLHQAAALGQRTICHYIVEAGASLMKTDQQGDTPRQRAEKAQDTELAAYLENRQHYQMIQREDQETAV

Row | IC50 (DGK ζ kinase) | Structure (SMILES) | Emax (MV-3 cells) | EC50 (MV-3 cells)
1 | – | N[C@H]1CS(=O)(=O)c2cc(F)c(-c3noc(C4(CO)CCCO4)n3)cc2N(Cc2ccc(-c3noc(C(F)(F)F)n3)cc2)C1=O (stereo partly drawn) [Example 18, (3R)-3-amino-8-fluoro-7-[5-[2-(hydroxymethyl)tetrahydrofuran-2-yl]-1,2,4-oxadiazol-3-yl]-1,1-dioxo-5-[[4-[5-(trifluoromethyl)-1,2,4-oxadiazol-3-yl]phenyl]methyl]-2,3-dihydro-1λ^6,5-benzothiazepin-4-one] | 67% | 29 nM
2 | 510 nM | CC(C)(C)c1nnc(-c2ccc3c(c2)N(Cc2ccc(-c4nnc(C(F)(F)F)o4)cc2)C(=O)[C@@H](N)CS3(=O)=O)o1 [Example 24, (3R)-3-amino-7-(5-tert-butyl-1,3,4-oxadiazol-2-yl)-1,1-dioxo-5-[[4-[5-(trifluoromethyl)-1,3,4-oxadiazol-2-yl]phenyl]methyl]-2,3-dihydro-1λ^6,5-benzothiazepin-4-one] | 108% | 273 nM
3 | 128 nM | CC(N)(c1nnc(-c2ccc3c(c2)N(Cc2ccc(-c4noc(C(F)(F)F)n4)cc2)C(=O)[C@@H](N)CS3(=O)=O)o1)C(F)(F)F (stereo partly drawn) [Example 32, (3R)-3-amino-7-[5-(1-amino-2,2,2-trifluoro-1-methyl-ethyl)-1,3,4-oxadiazol-2-yl]-1,1-dioxo-5-[[4-[5-(trifluoromethyl)-1,2,4-oxadiazol-3-yl]phenyl]methyl]-2,3-dihydro-1λ^6,5-benzothiazepin-4-one] | 100% | 120 nM
4 | – | CC(C#N)c1nnc(-c2ccc3c(c2)N(Cc2ccc(-c4noc(C(F)(F)F)n4)cc2)C(=O)[C@@H](N)CS3(=O)=O)o1 (stereo partly drawn) [Example 35, 2-[5-[(3R)-3-amino-1,1,4-trioxo-5-[[4-[5-(trifluoromethyl)-1,2,4-oxadiazol-3-yl]phenyl]methyl]-2,3-dihydro-1λ^6,5-benzothiazepin-7-yl]-1,3,4-oxadiazol-2-yl]propanenitrile] | 91% | 373 nM
5 | 50.7 nM | N[C@H]1CS(=O)(=O)c2ccc(-c3nnc(C4(C5CC5)CCCO4)o3)cc2N(Cc2ccc(-c3noc(C(F)(F)F)n3)cc2)C1=O (stereo partly drawn) [Example 36, (3R)-3-amino-7-[5-(2-cyclopropyl-tetrahydrofuran-2-yl)-1,3,4-oxadiazol-2-yl]-1,1-dioxo-5-[[4-[5-(trifluoromethyl)-1,2,4-oxadiazol-3-yl]phenyl]methyl]-2,3-dihydro-1λ^6,5-benzothiazepin-4-one] | – | –
6 | – | COC(F)(c1nnc(-c2ccc3c(c2)N(Cc2ccc(-c4noc(C(F)(F)F)n4)cc2)C(=O)[C@@H](N)CS3(=O)=O)o1)C(F)(F)F (stereo partly drawn) [Example 37, (3R)-3-amino-1,1-dioxo-7-[5-(1,2,2,2-tetrafluoro-1-methoxy-ethyl)-1,3,4-oxadiazol-2-yl]-5-[[4-[5-(trifluoromethyl)-1,2,4-oxadiazol-3-yl]phenyl]methyl]-2,3-dihydro-1λ^6,5-benzothiazepin-4-one] | 133% | 58 nM
7 | 56.4 nM | N[C@H]1CS(=O)(=O)c2ccc(-c3nnc(C4(N)CCCCC4)o3)cc2N(Cc2ccc(-c3noc(C(F)(F)F)n3)cc2)C1=O [Example 39, (3R)-3-amino-7-[5-(1-aminocyclohexyl)-1,3,4-oxadiazol-2-yl]-1,1-dioxo-5-[[4-[5-(trifluoromethyl)-1,2,4-oxadiazol-3-yl]phenyl]methyl]-2,3-dihydro-1λ^6,5-benzothiazepin-4-one] | 72% | 190 nM
8 | – | N[C@H]1CS(=O)(=O)c2ccc(-c3nnc(C4(CO)CCCO4)o3)cc2N(Cc2ccc(-c3noc(C(F)(F)F)n3)cc2)C1=O (stereo partly drawn) [Example 54, (3R)-3-amino-7-[5-[2-(hydroxymethyl)tetrahydrofuran-2-yl]-1,3,4-oxadiazol-2-yl]-1,1-dioxo-5-[[4-[5-(trifluoromethyl)-1,2,4-oxadiazol-3-yl]phenyl]methyl]-2,3-dihydro-1λ^6,5-benzothiazepin-4-one] | 86% | 246 nM
9 | – | N[C@H]1CS(=O)(=O)c2ccc(-c3nnc(N4CCOC(F)(F)C4)o3)cc2N(Cc2ccc(-c3nnc(C(F)(F)F)o3)cc2)C1=O [Example 80] | 86% | 257 nM
10 | 4.1 nM | CC(C)(C#N)c1nnc(-c2cc3c(cc2F)S(=O)(=O)C[C@H](N)C(=O)N3Cc2ccc(-c3ccc(C(F)(F)F)cn3)cc2)o1 [Example 88, 2-[5-[(3R)-3-amino-8-fluoro-1,1,4-trioxo-5-[[4-[5-(trifluoromethyl)-2-pyridyl]phenyl]methyl]-2,3-dihydro-1λ^6,5-benzothiazepin-7-yl]-1,3,4-oxadiazol-2-yl]-2-methyl-propanenitrile] | – | –
11 | – | Cn1nc(C(F)(F)F)cc1-c1ccc(CN2C(=O)[C@@H](N)CS(=O)(=O)c3ccc(-c4nnc(C(C)(C)C)o4)cc32)cc1 [Example 92] | 99% | 120 nM
12 | 107 nM | CC(O)(c1nnc(-c2ccc3c(c2)N(Cc2ccc(-c4noc(C(F)(F)F)n4)cc2)C(=O)[C@@H](N)CS3(=O)=O)o1)C(F)(F)F (stereo partly drawn) [Example 96, (3R)-3-amino-1,1-dioxo-7-[5-(2,2,2-trifluoro-1-hydroxy-1-methyl-ethyl)-1,3,4-oxadiazol-2-yl]-5-[[4-[5-(trifluoromethyl)-1,2,4-oxadiazol-3-yl]phenyl]methyl]-2,3-dihydro-1λ^6,5-benzothiazepin-4-one] | – | –
13 | – | N[C@H]1CS(=O)(=O)c2ccc(-c3nnc(N4CCC(F)(F)CC4)o3)cc2N(Cc2ccc(-n3ccc(C(F)(F)F)n3)cc2)C1=O [Example 162, (3R)-3-amino-7-[5-(4,4-difluoro-1-piperidyl)-1,3,4-oxadiazol-2-yl]-1,1-dioxo-5-[[4-[3-(trifluoromethyl)pyrazol-1-yl]phenyl]methyl]-2,3-dihydro-1λ^6,5-benzothiazepin-4-one] | 100% | 168 nM
